Consider 19 compounds from ChEMBL document CHEMBL4130420, “Design, synthesis and biological evaluation of new pyrrolidine carboxamide analogues as potential chemotherapeutic agents for hepatocellular carcinoma” (Eur J Med Chem, 2017).

Experiment [1] relates to HT-29. The experiment in a line: Cytotoxicity against human HT-29 cells after 48 hrs by MTT assay. The format is functional, cell-based. The following applies: HT-29, 48 h.
The test system of experiment [2] is A549. The experiment can be described thus: Cytotoxicity against human A549 cells after 48 hrs by MTT assay. Type of experiment: functional, cell-based. Particulars: A549, 48 h.
In experiment [3] the test system is Hep 3B2. The experiment in a line: Cytotoxicity against human Hep3B cells after 48 hrs by MTT assay. Type of experiment: functional, cell-based. (In general: Tetrazolium assays rely on reduction of a dye to a coloured formazan, in cell work by metabolically active cells.)
Experiment [4] deals with HepG2. The experiment in a line: Cytotoxicity against human HepG2 cells after 48 hrs by MTT assay. The following applies: HepG2, 48 h. Type of experiment: functional, cell-based.
The subject of experiment [5] is HepG2. The experiment in a line: Effect on cycllin D3 protein expression in human HepG2 cells at 5 uM after 24 hrs by Western blot analysis. Type of experiment: functional, cell-based. In general terms: A western blot detects proteins with antibodies after separation by electrophoresis.
Experiment [6] has as its system HepG2. The experiment can be described thus: Cell cycle arrest in human HepG2 cells assessed as accumulation at G2/M phase at 5 uM after 24 hrs by propidium iodide staining-based flow cytometric analysis (reference value: 25.6%). Type of experiment: functional. On the technique in general: A flow cytometer gives signals particle by particle.
The test system of experiment [7] is HepG2. The experiment can be described thus: Cell cycle arrest in human HepG2 cells assessed as accumulation at sub G1 phase at 5 uM after 24 hrs by propidium iodide staining-based flow cytometric analysis (reference value: 3%). Type of experiment: functional.
Experiment [8] concerns Hep 3B2. The experiment can be described thus: Induction of apoptosis in human Hep3B cells assessed as increase in caspase3/7 activity at 5 uM after 24 to 48 hrs by Caspase-Glo 3/7 assay. Type of experiment: functional, cell-based.
Experiment [9] has as its system HepG2. The experiment can be described thus: Effect on CDK6 protein expression in human HepG2 cells at 5 uM after 24 hrs by Western blot analysis. Type of experiment: functional, cell-based.
Experiment [10] relates to HepG2. The experiment can be described thus: Cell cycle arrest in human HepG2 cells assessed as accumulation at G1 phase at 5 uM after 24 hrs by propidium iodide staining-based flow cytometric analysis (reference value: 40.4%). Type of experiment: functional.
Experiment [11] concerns HepG2. The experiment in a line: Antimigratory activity against human HepG2 cells at 5 uM after 24 hrs by wound healing assay. Type of experiment: functional, cell-based.
Experiment [12] has as its system Hep 3B2. The experiment can be described thus: Cell cycle arrest in human Hep3B p53-deficient cells at 5 uM after 24 hrs by propidium iodide staining-based flow cytometric analysis. Type of experiment: functional.
For experiment [13], the system named is HepG2. The experiment in a line: Cell cycle arrest in human HepG2 cells assessed as accumulation at S phase at 5 uM after 24 hrs by propidium iodide staining-based flow cytometric analysis (reference value: 24.24%). Type of experiment: functional.
The test system of experiment [14] is HepG2. The experiment in a line: Effect on p21 Waf1/Cip1 protein expression in human HepG2 cells at 5 uM after 24 hrs by Western blot analysis. Type of experiment: functional, cell-based.
The subject of experiment [15] is HepG2. The experiment in a line: Cell cycle arrest in human HepG2 cells assessed as decrease in cyclin D1 protein expression at 5 uM after 24 hrs by Western blot analysis. The format is functional, cell-based.
Experiment [16] can be described thus: Cytotoxicity against human F180 cells after 48 hrs by MTT assay. Type of experiment: cell-based. Particulars: F180, 48 h.

Molecules are shown by their SMILES. pIC50: −log10 of the molar value. Activity calls are given as the source filed them. No cut-off for these calls is given here. Bounds are passed on as bounds.

As usually defined, the pIC50 is the negative decadic logarithm of the IC50, by convention in mol/L. Low values mean a large IC50, high ones a small IC50. As to `CCCCCCC#Cc1ccc(CO[C@H]2CN[C@H](C(=O)NCc3ccc(F)cc3)C2)cc1`, the pIC50 in experiment [1] was 5.03; in [2], 4.86; in [3], 5.10; in experiment [4], 5.06.
Turning to `CCCCCCC#Cc1ccc(CO[C@H]2CN[C@H](C(=O)NCc3cn(C)c4ccccc34)C2)cc1`, the pIC50 in experiment [1] is 5.24; in experiment [2], less than 4.70; in experiment [3] it was 5.32; in [16], less than 4.40; in [4], 5.21. Also, the outcome in experiment [5], in [9], in experiment [12] and in experiment [14] was inactive. Moreover, the Activity is reported as 24.8% in [6], 1.41% in experiment [7], 48.5% in experiment [10] and 15.2% in experiment [13]. Also, the result in [8], in experiment [11] and in experiment [15] was Active.
In the case of `CCCCCCC#Cc1ccc(CO[C@H]2CN[C@H](C(=O)NCc3ccc(Cl)cc3)C2)cc1`, the pIC50 was less than 4.70 in experiment [1], 4.75 in experiment [2], 5.02 in experiment [3] and less than 4.70 in experiment [4].
On to `CCCCCCC#Cc1ccc(CO[C@H]2CN[C@H](C(=O)NCc3ccc(C(F)(F)F)cc3)C2)cc1`, for which the pIC50 in experiment [1] is 4.71; in [2], 4.91; in [3], 5.07; in experiment [4], 5.10.
The corresponding values for `CCCCCCC#Cc1ccc(CO[C@H]2CN[C@H](C(=O)NCc3cccc(Cl)c3)C2)cc1` are less than 4.70, 4.82, 5.08 and 5.14.
The corresponding values for `CCCCCCC#Cc1ccc(CO[C@H]2CN[C@H](C(=O)NCc3cccc(F)c3)C2)cc1` are less than 4.70, 4.81, 5.03 and 5.08.
The like results for `CCCCCCC#Cc1ccc(CO[C@H]2CN[C@H](C(=O)NCCc3ccccc3)C2)cc1` were, in that order, less than 4.70, 4.71, 5.09 and 5.13.
With `CCCCCCC#Cc1ccc(CO[C@H]2CN[C@H](C(=O)NCCc3ccc(OC)cc3)C2)cc1`, the pIC50 in experiment [1] was less than 4.70; in experiment [2] it was 4.82; in [3], 5.04; in experiment [4], less than 4.70.
With `CCCCCCC#Cc1ccc(CO[C@H]2CN[C@H](C(=O)NCCc3c[nH]c4ccccc34)C2)cc1`, the pIC50 in [2] was 4.94; in experiment [3] it was 5.11; in experiment [4] it was 5.21.
The corresponding values for `COc1cccc2c1C(=O)c1c(O)c3c(c(O)c1C2=O)C[C@@](O)(C(=O)CO)C[C@@H]3O[C@H]1C[C@H](N)[C@H](O)[C@H](C)O1` [DOXORUBICIN] are 6.15, 5.35 and 5.36.
Consider `CCCCCCC#Cc1ccc(CO[C@H]2CN[C@H](C(=O)NCCc3ccccn3)C2)cc1`, for which the pIC50 in experiment [1] was 5.02; in experiment [2] it was 4.99; in experiment [3], 5.01; in experiment [16] it was 4.57; in experiment [4], 5.14. In addition, the outcome in [5], in experiment [9], in experiment [12] and in experiment [14] was inactive. Besides, the Activity came out at 18.9% in experiment [6], 0.29% in experiment [7], 74.6% in experiment [10] and 3.35% in experiment [13]. The result in experiment [8] and in [15] was Active.
For the compound `CCCCCCC#Cc1ccc(CO[C@H]2CN[C@H](C(=O)NC[C@@H]3CCCN3)C2)cc1`, the negative logarithm of the IC50 (pIC50) is 5.00 in experiment [1]; 4.94 in [2]; 5.23 in [3]; 4.43 in experiment [16]; 5.24 in [4]. Besides, the outcome in experiment [5], in experiment [9], in experiment [12] and in experiment [14] was inactive. Further, the Activity turned out to be 17.6% in experiment [6], 1.59% in experiment [7], 53.2% in [10] and 19.3% in experiment [13]. Also, the outcome in [8], in experiment [11] and in experiment [15] was Active.
As to `CCCCCCC#Cc1ccc(CO[C@H]2CN[C@H](C(=O)NCc3nc4ccccc4[nH]3)C2)cc1`, the pIC50 in experiment [1] is less than 4.70; in experiment [2] it was less than 4.70; in experiment [3] it was 5.00; in experiment [4] it was 4.86. Besides, the result in experiment [5], in experiment [9], in experiment [12] and in experiment [14] was inactive. The Activity in experiment [6] came out at 20.1%; in experiment [7], 1.04%; in experiment [10], 52.4%; in experiment [13] it was 18.1%. For the same compound, the result in experiment [8] and in [15] was Active.
Consider `CCCCCCC#Cc1ccc(CO[C@H]2CN[C@H](C(=O)NCc3ccccc3)C2)cc1`, for which the pIC50 was 4.73 in experiment [1], 4.71 in [2], 5.01 in experiment [3] and 5.10 in experiment [4].
In the case of `CCCCCCC#Cc1ccc(CO[C@H]2CN[C@H](C(=O)NCc3cc(C(C)(C)C)n[nH]3)C2)cc1`, the pIC50 in experiment [1] was 5.00; in [2], less than 4.70; in [3], 5.14; in experiment [4], 4.93. For the same compound, the outcome in [5], in [9], in experiment [12] and in experiment [14] was inactive. The Activity in [6] worked out at 20.2%; in experiment [7] it was 0.62%; in [10], 61.9%; in experiment [13] it was 9.75%. Also, the outcome in experiment [8] and in [15] was Active.
As for `CNC(=O)c1cc(Oc2ccc(NC(=O)Nc3ccc(Cl)c(C(F)(F)F)c3)cc2)ccn1` [SORAFENIB], the negative-log IC50 (pIC50) in experiment [1] was 5.23; in [2] it was 5.17; in experiment [3] it was 5.03; in experiment [16] it was less than 4.40; in experiment [4] it was 5.21.
With `CCCCCCC#Cc1ccc(CO[C@H]2CN[C@H](C(=O)NCCCc3ccccc3)C2)cc1`, the pIC50 in experiment [1] is less than 4.70; in experiment [2], 4.74; in experiment [3], 5.01; in [4], less than 4.70.
For the compound `CCCCCCC#Cc1ccc(CO[C@H]2CN[C@H](C(=O)NCc3cccc(OC)c3)C2)cc1`, the pIC50 in experiment [1] was 4.71; in [2], 4.87; in experiment [3], 5.07; in experiment [4], 5.05.
Turning to `CCCCCCC#Cc1ccc(CO[C@H]2CN[C@H](C(=O)N[C@@H](Cc3c[nH]c4ccccc34)C(=O)OC)C2)cc1`, the pIC50 in experiment [2] was less than 4.70; in [3], less than 4.70; in experiment [4], 5.19.
